Test results published in patent publication US6413948B1, “Pharmaceutical compositions and methods of effecting a neuronal activity in an animal using naaladase inhibitors” (Guilford Pharmaceuticals Inc., priority 1996, dated 2002).

What was measured:
[1] = system: Sprague-Dawley rats, 2 hour transient middle cerebral artery occlusion (MCAO); experiment: In vivo assay on brain injury following MCAO in Sprague-Dawley rats; conditions: 100 mg/kg IP then 20 mg/kg/hr IV for 4 hours
Procedure: In the control group (n=8), the rats received an IP injection of saline 30 minutes post-occlusion followed by IV saline infusion at a rate of 0.5 ml/hr. […] There was a 15 minute delay between IP and IV treatments for each rat. Twenty two hours following the reperfusion, the rats were euthanized and their brains were removed. Seven coronal sections (2 mm thick) were taken and stained with 1% solution of 2,3,5-triphenyltetraxolium chloride (TTC) for 20 minutes and then fixed in 10% formalin. The anterior and posterior surface of the most rostral brain section and the posterior surface of each of the other 6 sections were imaged. The quantification of infarct size of each brain was obtained using a computer aided-digital imaging analysis system (LOATS). The brain regions completely lacking TTC-staining were characterized as representative of infarcted tissue. The total infarct volume for each rat was calculated by numeric integration of the respective sequential brain areas.
Male Sprague-Dawley rats (260-320 g) were used. Prior to the experiment, the rats were individually housed and allowed free access to food and water. Each rat received two surgeries: jugular vein cannulation for IV infusion and MCAO. During surgeries, the rat was anesthetized with […] delivered in oxygen via an inhalation mask. The body temperature was monitored and regulated at normothermic level using a homeothermic heating system. First, a PE-50 polyethylene catheter was inserted into the right jugular vein. One hour later, the rat was reanesthetized for MCAO surgery. The MCAO was achieved using the endovascular suture method described by Long et al., Stroke, Vol. 20, pp. 84-91 (1989). Specifically, the right external carotid artery (ECA) was exposed, coagulated and transected. A 3-0 monofilament nylon suture with a blunted tip was introduced into the proximal stump of the ECA via an arteriotomy and advanced 20 mm from the carotid bifurcation until it lodged in the proximal region of the anterior cerebral artery, thereby occluding the origin of the MCA. The rats were allowed to wake up; 2 hours later, the rats were reanesthetized for reperfusion, during which the nylon suture was retracted to the stump of the ECA allowing blood recirculation to the MCA.

[2] = system: stroke-induced rise in brain glutamate levels; experiment: In vivo assay on stroke-induced rise in brain glutamate levels (microdialysis); set-up: species or system Sprague Dawley rats; conditions: rat
From the text: Male Sprague Dawley rats (270-330 g, n=5-6 per group) were implanted with concentric microdialysis probes similar to previously described procedures (Britton et al., J. Neurochem., Vol. 67, pp. 324-329 (1996)). In brief, under halothane anaesthesia, probes (constructed in-house using Cuprophane capillary membrane; 10K mw cut off; 2 mm dialyzing length) were implanted into the frontal cortex (AP=+3.5; ML=3; DIV=3), caudate nucleus (AP=0; ML=3; DV=6.6), and parietal cortex (AP=−2; ML=5; DV=3) (coordinates in mm relative to bregma and dura, respectively), regions believed to represent core and penumbral areas of ischemia-induced injury. Glutamate levels in dialysate were determined using precolumn o-phthaldialdehyde derivatization, followed by HPLC with fluorometric detection.
Following a 60 minute stabilization period, dialysis samples were collected every 20 minutes. After collecting 3 baseline samples, the rats were anaesthetized with halothane and subjected to temporary ischemia using the filament method of MCAO (Britton et al., Life Sciences, Vol. 60, No. 20, pp. 1729-1740 (1997)). In brief, the right external carotid artery (ECA) was exposed and its branches coagulated. A 3-0 monofilament nylon suture was introduced into the internal carotid artery via an arteriotomy in the ECA and advanced until it lodged in the proximal region of the anterior cerebral artery, thus occluding the origin of the MCA. The endovascular suture was retracted to allow reperfusion 2 hours after occlusion.
Body temperature was maintained normothermic throughout stroke surgery and reperfusion procedures. […] Dialysis samples were collected every 20 minutes from unanesthetized rats.

[3] = system: mouse sciatic nerve following cryolesion; experiment: In vivo assay on myelin formation following sciatic nerve cryolesion; set-up: species or system mice; conditions: silicone implants, approximately 2.5 μg/day, 15 days after surgery
Procedure: Cryolesion of the mouse sciatic nerve was performed according to Koenig et al., Science, Vol. 268, pp. 1500-1503 (June 1995). In brief, each mouse was anesthetized and its sciatic nerve was exposed in the upper thigh and cryolesioned using a copper cryode (diameter=0.5 mm) that was dipped in liquid nitrogen and repeatedly applied to the upper part of the nerve. The extent of the lesion was approximately 1 mm.
Fifteen days after surgery, the mice were sacrificed and their sciatic nerve segments were collected and processed for light microscopy and TEM analysis. Randomly chosen fields 2-3 mm distal to the lesion were qualitatively analyzed by light microscopy using 1-micrometer-thick toluidine blue stained cross sections and photographic images were captured.

[4] = system: MPTP lesioned mice; experiment: In vivo assay on Parkinson's Disease (MPTP lesioned mice, TH immunostaining); set-up: species or system CD1 white mice
Procedure: MPTP lesioning of dopaminergic neurons in mice was used as an animal model of Parkinson's Disease, as described by Steiner, Proc. Natl. Acad. Sci., Vol. 94, pp. 2019-2024 (March 1997). In brief, four week old male CD1 white mice were dosed IP with 30 mg/kg of MPTP for 5 days. […] At 18 days following MPTP treatment, the mice were sacrificed and their brains were removed and sectioned. Immunostaining was performed on saggital and coronal brain sections using anti-tyrosine hydroxylase (TH) antibodies to quantitate survival and recovery of dopaminergic neurons.

O=C(O)CCC(CP(=O)(O)O)C(=O)O (centres unmarked) [2-(phosphonomethyl)pentanedioic acid] was tested, and the “mean total brain infarct volume” value ([1]; 20 minute pre-treatment) was 122±26 mm^3, the “mean total brain infarct volume” value ([1]; 30 minute post-treatment) was 208±40 mm^3 and the “mean total brain infarct volume” value ([1]; 60 minute post-treatment) was 125±57 mm^3. The “mean total brain infarct volume” value ([1]; 120 minute post-treatment) was 133±35 mm^3, the “concurrent glutamate changes in the parietal cortex” value [2] was “completely prevented” and the “glutamate in the frontal cortex” value [2] was “no subsequent difference”. For the same compound, the “stroke-induced extracellular glutamate increases in the striatum” value [2] was “significantly attenuated”, the “# of myelinated lamellae (ave. + SEM)” value [3] was 16.53 ± 0.65 and the “% increase of myelinated lamellae over vehicle” value [3] was 20%. For the same compound, the “Percent Strial TH Innervation Density (mean ± SEM)” value ([4]; MPTP 30 mg/kg IP for 5 days plus compound 10 mg/kg SC) was 16.28 ± 0.98% and the “recovery of TH-stained dopaminergic neurons (in words)” value ([4]; lesioned mice, 10 mg/kg, p<0.001) was “significant recovery”.
